# Measured values published in patent US10738041B2, “Ferroportin inhibitors” (Vifor (International) AG, priority 2015, dated 2020).
# Legend:
# ferroportin (Fpn) = target: T1, ferroportin (Fpn) (Mus musculus, UniProt Q9JHI9); assay: Ferroportin Ubiquitination and Degradation (immunoprecipitation, Western blot); assay type: cell-based; design: key: + comparable to hepcidin; − no effect; +/− intermediate effect; settings: J774 cells; visual inspection of Western blots; concentration per compound ca. 10-fold J774 IC50
# T1 construct: host or cells: J774 mouse macrophage cell line, Fe(III)-NTA induced
# T1 sequence (Q9JHI9 1-570): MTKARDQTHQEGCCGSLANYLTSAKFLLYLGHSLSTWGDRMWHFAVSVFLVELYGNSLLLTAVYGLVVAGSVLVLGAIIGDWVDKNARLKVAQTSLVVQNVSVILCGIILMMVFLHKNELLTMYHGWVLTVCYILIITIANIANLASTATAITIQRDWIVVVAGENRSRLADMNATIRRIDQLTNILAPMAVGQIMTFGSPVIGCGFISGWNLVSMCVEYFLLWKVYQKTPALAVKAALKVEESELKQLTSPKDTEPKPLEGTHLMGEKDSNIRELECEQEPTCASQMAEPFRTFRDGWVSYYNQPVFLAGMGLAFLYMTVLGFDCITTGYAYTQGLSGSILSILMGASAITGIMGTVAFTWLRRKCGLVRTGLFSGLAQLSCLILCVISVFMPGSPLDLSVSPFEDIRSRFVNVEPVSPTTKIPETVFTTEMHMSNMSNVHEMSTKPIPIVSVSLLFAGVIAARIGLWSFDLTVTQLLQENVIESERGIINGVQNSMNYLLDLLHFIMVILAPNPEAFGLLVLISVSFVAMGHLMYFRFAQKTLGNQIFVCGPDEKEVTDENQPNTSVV
# Description: Exposure of cells expressing ferroportin (Fpn) to hepcidin is known to trigger ubiquitination aid subsequent internalization and degradation of Fpn (Qiao, 2012). The potential of Fpn inhibitors to induce Fpn ubiquitination and degradation was investigated with an immunoprecipitation assay using the J774 mouse macrophage cell line which expresses Fpn upon treatment with iron.
# Cells were incubated with synthetic human hepcidin (Bachem, Cat. H-5926) or Fpn inhibitor compounds for 10 min or 120 min. Cells were washed and lysed witi ice-cold lysis buffer (Pierce, Life Technoligies, Cat. 87787) including 1× HALT protease inhibitor cocktail (Life technologies, Cat. 78429) and 10 mM iodoacetamide (Sigma, Cat. 16125) to stabilize ubiquitinated proteins. Immunoprecipitation was done using the Pierce Classic IP Kit (Life Technologies, Cat. 26146) following the manufacturer's protocol. Briefly, 2 mg protein in 1.25 ml IP lysis buffer was incubated by mixing for 1 h at 4° C. with control agarose beads to pre-clear the lysate and reduce nonspecific signal. Unbound lysate was then incubated overnight with 12 μg per reaction of the affinity purified anti-Fpn antibody F308 that was raised against a GST fusion protein of mouse Fpn amino acids 224308. Immune complexes were captured by pipetting 14 μl settled Pierce Protein A/G Plus Agarose beads (Life Technologies, Cat. 20423) per reaction and the slurry was incubated for 1.5 h at 4° C. with gentle end-over-end mixing. The beads were washed and immune complexes were eluted directly with 75 μl SDS NuPAGE LDS sample buffer (Life Technologies, Cat. NP0007) containing DTT (Life Technologies, Cat. NP0009). After immunoprecipitation samples were analyzed by Western blotting using a rabbit anti-mouse MTP1 antiserum (Alpha Diagnostic International, Cat. MTP11-A) and a mouse anti-mono- and polyubiquitinylated conjugates monoclonal antibody (Enzo Lifesciences, Cat. BML-PW8810) for detection of ferroportin and ubiquitin, respectively. Mouse monoclonal anti-rabbit IgG light chain (Abcam, Cat. ab99697) and anti-mouse IgG H&L (Abcam, Cat. ab6789) HRP conjugates were used as secondary antibodies.
# A selection of eleven Fpn inhibitors were tested in this assay and compared to hepcidin.
# J774 cells were incubated overnight with Fe(III)-NTA to induce expression of Fpn. […] Mock treated cells were harvested after 120 min (Control).
# Hbb th3/+ mice = assay: Improvement of anemia, ineffective erythropoiesis and iron overload in a mouse model of β-thalassemia intermedia; assay type: in vivo; settings: for Correction of anemia at day 20-48 (hemoglobin, difference to vehicle control) / Decrease in 58Fe spleen iron content / Decrease in blood reticulocyte counts / Decrease in leukocyte counts / Decrease in serum erythropoietin / Increase in blood erythrocyte counts / Increase in hematocrit / Prevention of liver 58Fe loading: 27 days (127) or 46 days (40); for Decrease in serum iron: Hbb th3/+ mice, % change to vehicle control
# Description: The efficacy of Fpn inhibitors was investigated using a mouse model of transfusion-independent β-thalassemia. Mice with heterozygous deletion of β1 and β2 globin genes (called Hbb th3/+ mice) develop transfusion-independent anemia, ineffective erythropoiesis, splenomegaly and secondary iron overload in spleen, liver and kidneys. […] Hbb th3/+ mice were dosed twice daily with either compound at 20 or 60 mg/kg or with methylcellulose (10 ml/kg, Sigma, Cat. 274429) as a vehicle. Between both doses mice had access to drinking water supplemented with 1 mM ^58Fe(II)-sulfate (Vifor Pharma, Batch No. ROR 3096) and 10 mM ascorbic acid (Sigma, Cat. 795437) for 6 h. […] Water without ^58Fe(II)-Sulfate and ascorbic acid was provided during the remaining 18 h. Dosing of Fpn inhibitors or vehicle followed by exposure to iron-containing water was repeated for 20 to 46 days in individual experiments.
# Additional hematologic parameters were measured in terminal blood using automated blood cell analyzer.
# The inefficient erythropoiesis of Hbb th3/+ mice causes excessive proliferation of erythroid precursors in spleen, leading to splenomegaly.
# Elevated erythropoietin levels in Hbb th3/+ mice hduced overexpression of erythroferrone, an erythroid regulator hormone known to suppress hepcidin (Kautz L. et al, Nat. Genet., 2014). […] Erythroferrone is produced by erythrocyte precursors proliferating massively in spleens of Hbb th3/+ mice as a consequence of extramedullar erythropoiesis.
# Increased iron demand due to inefficient erythropoiesis and chronically low hepcidin levels in patients with thalassemia causes organ iron loading and associated morbidities, such as hepatocellular carcinoma and heart failure (Rivella S. Haematologica, 2015). Hbb th3/+ mice absorb excessive amounts of iron as a consequence of inadequately low hepcidin levels relative to the high iron content in liver, spleen and kidney and increased ferroportin expression in duodenum (Gardenghi S., Blood, 2007).
# Additionally, reactive oxygen species (ROS) were detected in bone marrow cells using a fluorescent indicator, CM-H2DCFDA (Thermo Fisher Scientific, Cat. C6827).
compound,measurement,setting,value
"CC[C@H](C)[C@@H]1NC(=O)[C@@H](NC(=O)[C@@H](NC(=O)[C@@H]2CCCN2C(=O)[C@H](Cc2ccccc2)NC(=O)[C@H](Cc2c[nH]cn2)NC(=O)[C@@H](NC(=O)[C@@H](N)CC(=O)O)[C@@H](C)O)[C@@H](C)CC)CSSC[C@@H](C(=O)N[C@@H](CCCCN)C(=O)N[C@H](C(=O)O)[C@@H](C)O)NC(=O)[C@@H]2CSSC[C@@H]3NC(=O)[C@@H]4CSSC[C@H](NC(=O)[C@H](Cc5ccccc5)NC1=O)C(=O)N[C@@H](CSSC[C@H](NC(=O)[C@H](CCCCN)NC(=O)[C@H](CO)NC(=O)[C@H](CCCNC(=N)N)NC(=O)[C@H](Cc1c[nH]cn1)NC3=O)C(=O)NCC(=O)N[C@@H](CCSC)C(=O)N2)C(=O)NCC(=O)N4 [hepcidin, reference compound]",Fpn Degradation (120 min.),ferroportin (Fpn),+
same,Fpn Ubiquitination (10 min.),ferroportin (Fpn),+
O=C(NCc1ncccc1F)c1coc(CCNCc2nc3ccccc3[nH]2)n1 [Example 126],Fpn Degradation (120 min.),ferroportin (Fpn),+
same,Fpn Ubiquitination (10 min.),ferroportin (Fpn),+/−
O=C(NCc1ncccc1F)c1coc(CCNCCc2nc3ccccc3[nH]2)n1 [Example 127],Decrease in RDW,"Hbb th3/+ mice; 20 mg/kg twice daily, 27 days (127)",19%
same,"Correction of anemia at day 20-48 (hemoglobin, difference to vehicle control)",Hbb th3/+ mice; 20 mg/kg twice daily,12 g/L
same,Decrease in 58Fe spleen iron content,Hbb th3/+ mice; 20 mg/kg twice daily,43%
same,Decrease in blood reticulocyte counts,Hbb th3/+ mice; 20 mg/kg twice daily,16%
same,Decrease in leukocyte counts,Hbb th3/+ mice; 20 mg/kg twice daily,46%
same,Decrease in serum erythropoietin,Hbb th3/+ mice; 20 mg/kg twice daily,32%
same,Increase in blood erythrocyte counts,Hbb th3/+ mice; 20 mg/kg twice daily,0%
same,Increase in hematocrit,Hbb th3/+ mice; 20 mg/kg twice daily,3%
same,Prevention of liver 58Fe loading,Hbb th3/+ mice; 20 mg/kg twice daily,39%
same,Decrease in serum iron,Hbb th3/+ mice; 20 mg/kg,68%
same,Decrease in RDW,"Hbb th3/+ mice; 60 mg/kg twice daily, 27 days (127)",25%
same,"Correction of anemia at day 20-48 (hemoglobin, difference to vehicle control)",Hbb th3/+ mice; 60 mg/kg twice daily,20 g/L
same,Decrease in 58Fe spleen iron content,Hbb th3/+ mice; 60 mg/kg twice daily,68%
same,Decrease in blood reticulocyte counts,Hbb th3/+ mice; 60 mg/kg twice daily,61%
same,Decrease in leukocyte counts,Hbb th3/+ mice; 60 mg/kg twice daily,66%
same,Decrease in serum erythropoietin,Hbb th3/+ mice; 60 mg/kg twice daily,33%
same,Increase in blood erythrocyte counts,Hbb th3/+ mice; 60 mg/kg twice daily,36%
same,Increase in hematocrit,Hbb th3/+ mice; 60 mg/kg twice daily,20%
same,Prevention of liver 58Fe loading,Hbb th3/+ mice; 60 mg/kg twice daily,59%
same,Decrease in serum iron,Hbb th3/+ mice; 60 mg/kg,81%
same,Decreased in ROS in bone marrow erythrocytes,"Hbb th3/+ mice; second value of the cell (60 mg/kg) twice daily, 27 days (127)",NA/75%
